Values joined by “and” are separate entries in the source; they are usually repeats but may differ in a detail not shown here. Identical values can stand only once. Toxic doses and inconclusive results are not listed.

This test concerns BDF1 mice, P388 leukemia ip, median survival T/C. In words: NCI In Vivo Anticancer Drug Screen. Data for tumor model P388 Leukemia (intraperitoneal) in B6D2F1 (BDF1) mice. The settings on record: endpoint: median survival time, higher = longer survival. A digest of the protocol:
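Transplantable tumour in mice; compound vs vehicle dosing; survival scored; ratio of treated to control reported.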

Setting [1] is: dose: 12.5 mg/kg/injection, schedule: Q01DX009 (ip), vehicle: saline with Tween-80.
Where [2] appears, read: dose: 25.0 mg/kg/injection, schedule: Q04DX003 (ip), vehicle: saline with Tween-80.
[3] abbreviates: dose: 100.0 mg/kg/injection, schedule: Q04DX003 (ip), vehicle: saline with Tween-80.
Where [4] appears, read: dose: 200.0 mg/kg/injection, schedule: Q04DX003 (ip), vehicle: saline with Tween-80.
The mark [5] stands for this setting: dose: 400.0 mg/kg/injection, schedule: Q04DX003 (ip), vehicle: saline with Tween-80.
Where [6] appears, read: dose: 50.0 mg/kg/injection, schedule: Q01DX009 (ip), vehicle: saline with Tween-80.
[7] abbreviates: dose: 100.0 mg/kg/injection, schedule: Q01DX009 (ip), vehicle: saline with Tween-80.
Where [8] appears, read: dose: 200.0 mg/kg/injection, schedule: Q01DX009 (ip), vehicle: saline with Tween-80.
Setting [9] is: dose: 400.0 mg/kg/injection, schedule: Q01DX009 (ip), vehicle: saline with Tween-80.
Where [10] appears, read: dose: 25.0 mg/kg/injection, schedule: Q01DX009 (ip), vehicle: saline with Tween-80.

Take `CCCCCCCCCCC(=O)CCCCCC`: the T/C is 104 % of control (dose: 100.0 mg/kg/injection, schedule: Q04DX003 (ip), vehicle: other); 122 % of control (dose: 200.0 mg/kg/injection, schedule: Q04DX003 (ip), vehicle: other); 109 % of control (dose: 400.0 mg/kg/injection, schedule: Q04DX003 (ip), vehicle: other).
For `O=C1C2CC=CCC2C(=O)N1SC(Cl)(Cl)Cl` (stereo not drawn), the T/C is 120 % of control (dose: 6.25 mg/kg/injection, schedule: Q01DX009 (ip), vehicle: saline with Tween-80) and 120 % of control under setting [1].
With `C[C@@H]1CCC[C@@H](NC(=O)N(CCCl)N=O)C1`, the T/C reads like this: (dose: 9.37 mg/kg/injection, schedule: Q01DX009 (ip), vehicle: Klucel (hydroxypropylcellulose) (HPC)) 151 % of control; (dose: 18.75 mg/kg/injection, schedule: Q01DX009 (ip), vehicle: Klucel (hydroxypropylcellulose) (HPC)) 157 % of control; (dose: 37.5 mg/kg/injection, schedule: Q01DX009 (ip), vehicle: Klucel (hydroxypropylcellulose) (HPC)) 252 % of control; (dose: 75.0 mg/kg/injection, schedule: Q01DX009 (ip), vehicle: Klucel (hydroxypropylcellulose) (HPC)) 120 % of control.
In the case of `CCCCC(=O)N(c1ccc(Nc2c3ccccc3nc3cc([N+](=O)[O-])ccc23)cc1)S(C)(=O)=O`, the T/C is, setting by setting: (dose: 0.44 mg/kg/injection, schedule: Q01DX009 (ip), vehicle: saline with Tween-80) 167 % of control; (dose: 0.66 mg/kg/injection, schedule: Q01DX009 (ip), vehicle: saline with Tween-80) 180 % of control; (dose: 1.0 mg/kg/injection, schedule: Q01DX009 (ip), vehicle: saline with Tween-80) 194 % of control; (dose: 1.5 mg/kg/injection, schedule: Q01DX009 (ip), vehicle: saline with Tween-80) 205 % of control; (dose: 2.2 mg/kg/injection, schedule: Q04DX003 (ip), vehicle: saline with Tween-80) 154 % of control; (dose: 3.3 mg/kg/injection, schedule: Q04DX003 (ip), vehicle: saline with Tween-80) 150 % of control. Moreover, the T/C (dose: 5.0 mg/kg/injection, schedule: Q04DX003 (ip), vehicle: saline with Tween-80) was 186 % of control; the T/C (dose: 12.5 mg/kg/injection, schedule: Q04DX003 (ip), vehicle: saline with Tween-80) is 218 % of control; the T/C (dose: 22.0 mg/kg/injection, schedule: Q04DX003 (ip), vehicle: saline with Tween-80) was 250 % of control; the T/C under setting [2] was 245 % of control; the T/C (dose: 33.0 mg/kg/injection, schedule: Q04DX003 (ip), vehicle: saline with Tween-80) was 175 % of control and 209 % of control; the T/C (dose: 50.0 mg/kg/injection, schedule: Q04DX003 (ip), vehicle: saline with Tween-80) is 225 % of control and 272 % of control and 181 % of control. For the same compound, the T/C (dose: 75.0 mg/kg/injection, schedule: Q04DX003 (ip), vehicle: saline with Tween-80) is 109 % of control and 204 % of control.
With `CC(=O)Cc1ccc(C(=O)C(C)Cc2ccc(C(C)=O)cc2)cc1` (stereo not drawn), the T/C is 100 % of control under setting [3], 90 % of control under setting [4] and 90 % of control under setting [5].
Regarding `CC(C#N)(Nc1ccccc1)c1ccccc1` (stereo not drawn), the T/C under setting [3] was 95 % of control, the T/C under setting [4] was 100 % of control and the T/C under setting [5] is 100 % of control.
In the case of `COc1cc(C=Nc2ccc(C(=O)O)cc2)ccc1N(CCCl)CCCl`, the T/C (dose: 1.3 mg/kg/injection, schedule: Q04DX003 (ip), vehicle: saline with Tween-80) is 115 % of control; the T/C (dose: 2.0 mg/kg/injection, schedule: Q04DX003 (ip), vehicle: saline with Tween-80) was 111 % of control; the T/C (dose: 3.0 mg/kg/injection, schedule: Q04DX003 (ip), vehicle: saline with Tween-80) is 162 % of control; the T/C (dose: 7.0 mg/kg/injection, schedule: Q04DX003 (ip), vehicle: saline with Tween-80) was 150 % of control and 158 % of control; the T/C (dose: 11.0 mg/kg/injection, schedule: Q04DX003 (ip), vehicle: saline with Tween-80) was 170 % of control; the T/C under setting [1] was 195 % of control. Moreover, the T/C is, setting by setting: (dose: 16.0 mg/kg/injection, schedule: Q04DX003 (ip), vehicle: saline with Tween-80) 187 % of control; (dose: 16.5 mg/kg/injection, schedule: Q04DX003 (ip), vehicle: saline with Tween-80) 169 % of control; under setting [2], 196 % of control; (dose: 37.5 mg/kg/injection, schedule: Q04DX003 (ip), vehicle: saline with Tween-80) 107 % of control.
In the case of `Oc1cc2c(cc1O)C1c3ccc(O)c(O)c3OCC1(O)C2` (stereo not drawn), the T/C runs as follows: under setting [6], 97 % of control; under setting [7], 118 % of control; under setting [8], 102 % of control; under setting [9], 103 % of control.
In the case of `COc1ccc(OC)c2c(/C=C/c3ccc(N(C)C)cc3)ccnc12`, the T/C reads like this: under setting [1], 108 % of control; under setting [10], 103 % of control; under setting [6], 94 % of control and 110 % of control; under setting [7], 103 % of control; under setting [8], 91 % of control.
As for `CC(=O)[O][Hg][c]1c(N)c(C)cc(C)c1F`, the T/C is, setting by setting: (dose: 0.78 mg/kg/injection, schedule: Q01DX009 (ip), vehicle: saline) 93 % of control; (dose: 1.56 mg/kg/injection, schedule: Q01DX009 (ip), vehicle: saline) 95 % of control; (dose: 3.12 mg/kg/injection, schedule: Q01DX009 (ip), vehicle: saline) 93 % of control; (dose: 6.25 mg/kg/injection, schedule: Q01DX009 (ip), vehicle: saline) 95 % of control; (dose: 12.5 mg/kg/injection, schedule: Q01DX009 (ip), vehicle: saline) 95 % of control.
Regarding `CC(C)N(c1c2c(oc(=O)c1Cl)CCSC2)C(C)C`, the T/C was 99 % of control (dose: 100.0 mg/kg/injection, schedule: Q04DX002 (ip), vehicle: saline with Tween-80); 101 % of control (dose: 200.0 mg/kg/injection, schedule: Q04DX002 (ip), vehicle: saline with Tween-80); 96 % of control (dose: 400.0 mg/kg/injection, schedule: Q04DX002 (ip), vehicle: saline with Tween-80).
`COc1ccc(-c2c(C#N)cnc(C)c2C)c(O)c1OC`: the T/C (dose: 0.2 mg/kg/injection, schedule: Q01DX009 (ip), vehicle: Klucel (hydroxypropylcellulose) (HPC)) was 95 % of control.
In the case of `NC(c1ccccc1)S(=O)(=O)O` (stereo not drawn), the T/C reads like this: under setting [6], 115 % of control; under setting [7], 121 % of control; under setting [8], 93 % of control; under setting [9], 95 % of control.
Consider `O=C(C/C(=N\C(=S)Nc1cc(C(F)(F)F)ccc1Cl)NO)N1CCCC1`, for which the T/C under setting [6] is 110 % of control.
For `CN(C)P(=O)(N(C)C)N(C)C` (tested in a mixture with another compound), the T/C is 98 % of control (dose: 50.0 mg/kg/injection, schedule: Q01DX009 (ip), vehicle: Klucel (hydroxypropylcellulose) (HPC)); 105 % of control (dose: 100.0 mg/kg/injection, schedule: Q01DX009 (ip), vehicle: Klucel (hydroxypropylcellulose) (HPC)); 105 % of control (dose: 200.0 mg/kg/injection, schedule: Q01DX009 (ip), vehicle: Klucel (hydroxypropylcellulose) (HPC)).
As to `Cc1cc(=O)c2c(C)cccc2[nH]1`, the T/C by setting is: (dose: 6.25 mg/kg/injection, schedule: Q04DX003 (ip), vehicle: saline sonified) 104 % of control; (dose: 12.5 mg/kg/injection, schedule: Q04DX003 (ip), vehicle: saline sonified) 109 % of control; under setting [10], 113 % of control; (dose: 25.0 mg/kg/injection, schedule: Q04DX003 (ip), vehicle: saline sonified) 100 % of control.
Regarding `O=S(=O)(Sc1ccc(N(CCCl)CCCl)cc1)c1ccc(N(CCCl)CCCl)cc1`, the T/C runs as follows: under setting [7], 122 % of control; (dose: 132.0 mg/kg/injection, schedule: Q01DX009 (ip), vehicle: saline with Tween-80) 110 % of control.
For the compound `CCC1c2ccc3cc(OC)ccc3c2C(=O)CC1C(=O)O` (stereo not drawn), the T/C runs as follows: (dose: 100.0 mg/kg/injection, schedule: Q04DX003 (sc), vehicle: steriod suspending solution) 113 % of control; (dose: 200.0 mg/kg/injection, schedule: Q04DX003 (sc), vehicle: steriod suspending solution) 100 % of control; (dose: 400.0 mg/kg/injection, schedule: Q04DX003 (sc), vehicle: steriod suspending solution) 95 % of control.

The record behind these values is PubChem BioAssay AID328 (DTP/NCI, 2004).
